Test results: patent US12077503B2, “Substituted cyclic amides and their use as herbicides” (FMC CORPORATION, priority 2015, dated 2024)

How the values were obtained:
Format in all cases: in vivo
[1] = test system: corn (Zea mays); experiment: Test G Post-Emergence Protocol; conditions: Zea mays, post-emergence, 312 h, read-out: Corn damage rating; for plant injury at 15.625 g/ha: 15.625 g ai/ha, evaluated after 13 days (100=total damage to plant; 0=no damage to plant); for plant injury at 62.5 g/ha: 62.5 g ai/ha; for plant injury at 62.5 g/ha / plant injury at 250 g/ha: evaluated after 13 days, 100=total damage to plant, 0=no damage to plant; for plant injury at 250 g/ha: 250 g ai/ha
Procedure, shortened: (§1)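 Foliar application was made 8 days after sowing, using an aqueous spray of the active in acetone/water (50:50) with 0.5% Tween 20, at doses of 15.625, 62.5 or 250 g/ha. Injury was assessed 13 days later, where 100 meant the plant was fully damaged.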

[2] = test system: ivy-leaved morning glory (Ipomoea hederacea); experiment: Test G Post-Emergence Protocol; conditions: Ipomoea, post-emergence, 312 h, read-out: Morningglory, Ivy-leaved damage rating; for pest or weed control at 15.625 g/ha: 15.625 g ai/ha, evaluated after 13 days (100=total damage to plant; 0=no damage to plant); for pest or weed control at 62.5 g/ha: 62.5 g ai/ha; for pest or weed control at 62.5 g/ha / pest or weed control at 250 g/ha: evaluated after 13 days, 100=total damage to plant, 0=no damage to plant; for pest or weed control at 250 g/ha: 250 g ai/ha
Procedure, shortened: as §1

[3] = test system: giant foxtail (Setaria faberi); experiment: Test G Post-Emergence Protocol; conditions: Setaria faberi, post-emergence, 312 h, read-out: Foxtail, Giant damage rating; for pest or weed control at 15.625 g/ha: 15.625 g ai/ha, evaluated after 13 days (100=total damage to plant; 0=no damage to plant); for pest or weed control at 62.5 g/ha: 62.5 g ai/ha
Procedure, shortened: as §1

[4] = test system: velvetleaf (Abutilon theophrasti); experiment: Test G Post-Emergence Protocol; conditions: Abutilon theophrasti, post-emergence, 312 h, read-out: Velvetleaf damage rating; for pest or weed control at 15.625 g/ha: 15.625 g ai/ha, evaluated after 13 days (100=total damage to plant; 0=no damage to plant); for pest or weed control at 62.5 g/ha: 62.5 g ai/ha; for pest or weed control at 62.5 g/ha / pest or weed control at 250 g/ha: evaluated after 13 days, 100=total damage to plant, 0=no damage to plant; for pest or weed control at 250 g/ha: 250 g ai/ha
Procedure, shortened: as §1

[5] = test system: redroot pigweed (Amaranthus retroflexus); experiment: Test G Post-Emergence Protocol; conditions: Amaranthus retroflexus, post-emergence, 312 h, read-out: Pigweed, Redroot damage rating; for pest or weed control at 15.625 g/ha: 15.625 g ai/ha, evaluated after 13 days (100=total damage to plant; 0=no damage to plant); for pest or weed control at 62.5 g/ha: 62.5 g ai/ha; for pest or weed control at 62.5 g/ha / pest or weed control at 250 g/ha: evaluated after 13 days, 100=total damage to plant, 0=no damage to plant; for pest or weed control at 250 g/ha: 250 g ai/ha
Procedure, shortened: as §1

[6] = test system: barnyardgrass (Echinochloa crus-galli); experiment: Test G Post-Emergence Protocol; conditions: Echinochloa crus-galli, post-emergence, 312 h, read-out: Barnyardgrass damage rating; for pest or weed control at 15.625 g/ha: 15.625 g ai/ha, evaluated after 13 days (100=total damage to plant; 0=no damage to plant); for pest or weed control at 62.5 g/ha: 62.5 g ai/ha; for pest or weed control at 62.5 g/ha / pest or weed control at 250 g/ha: evaluated after 13 days, 100=total damage to plant, 0=no damage to plant; for pest or weed control at 250 g/ha: 250 g ai/ha
Procedure, shortened: as §1

[7] = test system: corn (Zea mays); experiment: Test G Pre-Emergence Protocol; conditions: Zea mays, pre-emergence, 312 h, evaluated after 13 days; for plant injury at 15.625 g/ha: 15.625 g ai/ha; for plant injury at 15.625 g/ha / plant injury at 250 g/ha: read-out: Corn damage rating (100=total damage to plant; 0=no damage to plant); for plant injury at 62.5 g/ha: 62.5 g ai/ha, 100=total damage to plant, 0=no damage to plant, read-out: Corn damage rating; for plant injury at 250 g/ha: 250 g ai/ha
Procedure, shortened: (§2)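 Glasshouse pre-emergence test: soil-sown seeds, sprayed after 1 d at 15.625, 62.5 or 250 g/ha. Conditions 24/16° C day/night, 14 h light, 65% humidity, watering twice daily. Rating 13 d post-spray (100 = total damage).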

[8] = test system: ivy-leaved morning glory (Ipomoea hederacea); experiment: Test G Pre-Emergence Protocol; conditions: Ipomoea, pre-emergence, 312 h, evaluated after 13 days; for pest or weed control at 15.625 g/ha: 15.625 g ai/ha; for pest or weed control at 15.625 g/ha / pest or weed control at 250 g/ha: read-out: Morningglory, Ivy-leaved damage rating (100=total damage to plant; 0=no damage to plant); for pest or weed control at 62.5 g/ha: 62.5 g ai/ha, 100=total damage to plant, 0=no damage to plant, read-out: Morningglory, Ivy-leaved damage rating; for pest or weed control at 250 g/ha: 250 g ai/ha
Procedure, shortened: as §2

[9] = test system: giant foxtail (Setaria faberi); experiment: Test G Pre-Emergence Protocol; conditions: Setaria faberi, pre-emergence, 312 h, evaluated after 13 days; for pest or weed control at 15.625 g/ha: 15.625 g ai/ha; for pest or weed control at 15.625 g/ha / pest or weed control at 250 g/ha: read-out: Foxtail, Giant damage rating (100=total damage to plant; 0=no damage to plant); for pest or weed control at 62.5 g/ha: 62.5 g ai/ha, 100=total damage to plant, 0=no damage to plant, read-out: Foxtail, Giant damage rating; for pest or weed control at 250 g/ha: 250 g ai/ha
Procedure, shortened: as §2

[10] = test system: velvetleaf (Abutilon theophrasti); experiment: Test G Pre-Emergence Protocol; conditions: Abutilon theophrasti, pre-emergence, 312 h, evaluated after 13 days; for pest or weed control at 15.625 g/ha: 15.625 g ai/ha; for pest or weed control at 15.625 g/ha / pest or weed control at 250 g/ha: read-out: Velvetleaf damage rating (100=total damage to plant; 0=no damage to plant); for pest or weed control at 62.5 g/ha: 62.5 g ai/ha, 100=total damage to plant, 0=no damage to plant, read-out: Velvetleaf damage rating; for pest or weed control at 250 g/ha: 250 g ai/ha
Procedure, shortened: as §2

[11] = test system: redroot pigweed (Amaranthus retroflexus); experiment: Test G Pre-Emergence Protocol; conditions: Amaranthus retroflexus, pre-emergence, 312 h, evaluated after 13 days; for pest or weed control at 15.625 g/ha: 15.625 g ai/ha; for pest or weed control at 15.625 g/ha / pest or weed control at 250 g/ha: read-out: Pigweed, Redroot damage rating (100=total damage to plant; 0=no damage to plant); for pest or weed control at 62.5 g/ha: 62.5 g ai/ha, 100=total damage to plant, 0=no damage to plant, read-out: Pigweed, Redroot damage rating; for pest or weed control at 250 g/ha: 250 g ai/ha
Procedure, shortened: as §2

[12] = test system: barnyardgrass (Echinochloa crus-galli); experiment: Test G Pre-Emergence Protocol; conditions: Echinochloa crus-galli, pre-emergence, 312 h, evaluated after 13 days; for pest or weed control at 15.625 g/ha: 15.625 g ai/ha; for pest or weed control at 15.625 g/ha / pest or weed control at 250 g/ha: read-out: Barnyardgrass damage rating (100=total damage to plant; 0=no damage to plant); for pest or weed control at 62.5 g/ha: 62.5 g ai/ha, 100=total damage to plant, 0=no damage to plant, read-out: Barnyardgrass damage rating; for pest or weed control at 250 g/ha: 250 g ai/ha
Procedure, shortened: as §2

[13] = evaluated after 13 days, 100=total damage to plant, 0=no damage to plant

`COc1c(C)cc(C2CN(C)C(=O)C2C(=O)Nc2cccc(F)c2F)cc1C` (centres unmarked) [Compound 1707] showed a plant injury at 15.625 g/ha [1] of 60%, a plant injury at 62.5 g/ha [1] of 70% and a plant injury at 250 g/ha [1] of 80%. It also gave a pest or weed control at 15.625 g/ha [2] of 40%, a pest or weed control at 62.5 g/ha [2] of 40% and a pest or weed control at 250 g/ha [2] of 70%. It also gave a pest or weed control at 15.625 g/ha [3] of 80%, a pest or weed control at 62.5 g/ha [3, 13] of 80% and a pest or weed control at 15.625 g/ha [4] of 0%. It also gave a pest or weed control at 62.5 g/ha [4] of 20%, a pest or weed control at 250 g/ha [4] of 30% and a pest or weed control at 15.625 g/ha [5] of 0%. For the same compound, the pest or weed control at 62.5 g/ha [5] was 0%, the pest or weed control at 250 g/ha [5] was 0% and the pest or weed control at 15.625 g/ha [6] was 70%. It also gave a pest or weed control at 62.5 g/ha [6] of 70%, a pest or weed control at 250 g/ha [6] of 80% and a plant injury at 15.625 g/ha [7] of 20%. For the same compound, the plant injury at 62.5 g/ha [7] was 80%, the plant injury at 250 g/ha [7] was 80% and the pest or weed control at 15.625 g/ha [8] was 0%. The pest or weed control at 62.5 g/ha [8] was 10%, the pest or weed control at 250 g/ha [8] was 30% and the pest or weed control at 15.625 g/ha [9] was 80%. The pest or weed control at 62.5 g/ha [9] was 90%, the pest or weed control at 250 g/ha [9] was 90% and the pest or weed control at 15.625 g/ha [10] was 10%. The pest or weed control at 62.5 g/ha [10] was 10%, the pest or weed control at 250 g/ha [10] was 60% and the pest or weed control at 15.625 g/ha [11] was 20%. It also gave a pest or weed control at 62.5 g/ha [11] of 20%, a pest or weed control at 250 g/ha [11] of 40% and a pest or weed control at 15.625 g/ha [12] of 70%. It also gave a pest or weed control at 62.5 g/ha [12] of 80% and a pest or weed control at 250 g/ha [12] of 90%.

In the case of `COc1c(F)cc(C2CN(C)C(=O)C2C(=O)Nc2cccc(F)c2F)cc1Cl` (centres unmarked) [Compound 1709], the plant injury at 15.625 g/ha [1] is reported as 30%, the plant injury at 62.5 g/ha [1] is reported as 60% and the plant injury at 250 g/ha [1] is reported as 80%. It also gave a pest or weed control at 15.625 g/ha [2] of 10%, a pest or weed control at 62.5 g/ha [2] of 50% and a pest or weed control at 250 g/ha [2] of 70%. It also gave a pest or weed control at 15.625 g/ha [3] of 70%, a pest or weed control at 62.5 g/ha [3, 13] of 80% and a pest or weed control at 250 g/ha ([3]; 250 g ai/ha, evaluated after 13 days, 100=total damage to plant, 0=no damage to plant) of 80%. The pest or weed control at 15.625 g/ha [4] was 20%, the pest or weed control at 62.5 g/ha [4] was 10% and the pest or weed control at 250 g/ha [4] was 50%. For the same compound, the pest or weed control at 15.625 g/ha [5] was 20%, the pest or weed control at 62.5 g/ha [5] was 10% and the pest or weed control at 250 g/ha [5] was 30%. It also gave a pest or weed control at 15.625 g/ha [6] of 30%, a pest or weed control at 62.5 g/ha [6] of 70% and a pest or weed control at 250 g/ha [6] of 80%. The plant injury at 15.625 g/ha [7] was 0%, the plant injury at 62.5 g/ha [7] was 70% and the plant injury at 250 g/ha [7] was 90%. The pest or weed control at 15.625 g/ha [8] was 0%, the pest or weed control at 62.5 g/ha [8] was 10% and the pest or weed control at 250 g/ha [8] was 20%. For the same compound, the pest or weed control at 15.625 g/ha [9] was 70%, the pest or weed control at 62.5 g/ha [9] was 80% and the pest or weed control at 250 g/ha [9] was 90%. It also gave a pest or weed control at 15.625 g/ha [10] of 0%, a pest or weed control at 62.5 g/ha [10] of 20% and a pest or weed control at 250 g/ha [10] of 30%. It also gave a pest or weed control at 15.625 g/ha [11] of 0%, a pest or weed control at 62.5 g/ha [11] of 20% and a pest or weed control at 250 g/ha [11] of 50%. The pest or weed control at 15.625 g/ha [12] was 60%, the pest or weed control at 62.5 g/ha [12] was 70% and the pest or weed control at 250 g/ha [12] was 80%.
